Patent US20230203175A1, “Anti-CD40 Antibody Combination Treatment for Cancer” (SEAGEN INC., priority 2020, published 2023)

Key:
[1] = target: murine CD40 (Mus musculus, UniProt P27512); test: Recognition of murine CD40; format: binding
[2] = system: cytokines (IFN-γ, IL-10); test: Cytokine production after administration to a patient; format: in vivo; conditions: when administered to a patient
[3] = system: FcγIII receptors; conditions: as described in US20170333556A1; cited from earlier work
[4] = system: CD40 signaling pathway; conditions: as described in US20170333556A1; cited from earlier work

Sequence of murine CD40 (P27512 20-289): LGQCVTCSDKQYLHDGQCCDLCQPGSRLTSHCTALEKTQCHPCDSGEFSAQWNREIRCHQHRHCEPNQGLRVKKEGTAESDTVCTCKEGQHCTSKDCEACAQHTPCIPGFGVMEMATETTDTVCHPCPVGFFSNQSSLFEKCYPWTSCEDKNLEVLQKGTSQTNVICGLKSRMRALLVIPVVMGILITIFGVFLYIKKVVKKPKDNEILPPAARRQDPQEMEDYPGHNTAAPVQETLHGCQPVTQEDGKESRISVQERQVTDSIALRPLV

SEA-CD40: non-fucosylated humanized IgG1 anti-CD40 monoclonal antibody; heavy and light chains SEQ ID NOs: 1 and 2
recognition of murine CD40 [1]: does not recognize murine CD40
production of cytokines, including interferon-γ (IFN-γ) [2]: induce production of cytokines
production of immune-dampening cytokines, such as interleukin-10 (IL-10) [2]: does not induce production
binding to FcγIII receptors [3]: enhanced binding
ability to activate the CD40 signaling pathway in immune cells [4]: enhanced ability
